One data set has as its system HT-29 colon cancer cells. In words: MTT antitumor assay, HT-29. The class given is cell-based. The following applies: Homo sapiens, HT-29, 48 h, read-out: IC50 (μM) ± SD HT-29.
For data set [1], the system named is MCF-7 breast cancer cells. In words: MTT antitumor assay, MCF-7. The class given is cell-based. The following applies: Homo sapiens, MCF7, 48 h, read-out: IC50 (μM) ± SD MCF-7.
A short description of data set [2]: MTT assay, normal fibroblast cell line HDF. The class given is cell-based. The following applies: human, HDF normal fibroblast cells. In general terms: Formazan colour is commonly taken as a measure of viable cells.
The next data set deals with A-549 lung cancer cells. In words: MTT antitumor assay, A-549. The class given is cell-based. To be noted: Homo sapiens, A549, 48 h, read-out: IC50 (μM) ± SD A-549.
A further data set addresses EGFR tyrosine kinase (Homo sapiens, UniProt P00533). In words: EGFR Kinase Assay Kit / Kinase-Glo luminescence kinase assay. The class given is biochemical. On the technique in general: In Kinase-Glo more light means more ATP remaining.

IC50 data for ten compounds are collected here from paper PMC10008000 (Iranian Journal of Pharmaceutical Research : IJPR, 2023).

One may read the IC50 as the concentration at which inhibition is half-maximal.

Chain of EGFR tyrosine kinase (P00533 25-1210): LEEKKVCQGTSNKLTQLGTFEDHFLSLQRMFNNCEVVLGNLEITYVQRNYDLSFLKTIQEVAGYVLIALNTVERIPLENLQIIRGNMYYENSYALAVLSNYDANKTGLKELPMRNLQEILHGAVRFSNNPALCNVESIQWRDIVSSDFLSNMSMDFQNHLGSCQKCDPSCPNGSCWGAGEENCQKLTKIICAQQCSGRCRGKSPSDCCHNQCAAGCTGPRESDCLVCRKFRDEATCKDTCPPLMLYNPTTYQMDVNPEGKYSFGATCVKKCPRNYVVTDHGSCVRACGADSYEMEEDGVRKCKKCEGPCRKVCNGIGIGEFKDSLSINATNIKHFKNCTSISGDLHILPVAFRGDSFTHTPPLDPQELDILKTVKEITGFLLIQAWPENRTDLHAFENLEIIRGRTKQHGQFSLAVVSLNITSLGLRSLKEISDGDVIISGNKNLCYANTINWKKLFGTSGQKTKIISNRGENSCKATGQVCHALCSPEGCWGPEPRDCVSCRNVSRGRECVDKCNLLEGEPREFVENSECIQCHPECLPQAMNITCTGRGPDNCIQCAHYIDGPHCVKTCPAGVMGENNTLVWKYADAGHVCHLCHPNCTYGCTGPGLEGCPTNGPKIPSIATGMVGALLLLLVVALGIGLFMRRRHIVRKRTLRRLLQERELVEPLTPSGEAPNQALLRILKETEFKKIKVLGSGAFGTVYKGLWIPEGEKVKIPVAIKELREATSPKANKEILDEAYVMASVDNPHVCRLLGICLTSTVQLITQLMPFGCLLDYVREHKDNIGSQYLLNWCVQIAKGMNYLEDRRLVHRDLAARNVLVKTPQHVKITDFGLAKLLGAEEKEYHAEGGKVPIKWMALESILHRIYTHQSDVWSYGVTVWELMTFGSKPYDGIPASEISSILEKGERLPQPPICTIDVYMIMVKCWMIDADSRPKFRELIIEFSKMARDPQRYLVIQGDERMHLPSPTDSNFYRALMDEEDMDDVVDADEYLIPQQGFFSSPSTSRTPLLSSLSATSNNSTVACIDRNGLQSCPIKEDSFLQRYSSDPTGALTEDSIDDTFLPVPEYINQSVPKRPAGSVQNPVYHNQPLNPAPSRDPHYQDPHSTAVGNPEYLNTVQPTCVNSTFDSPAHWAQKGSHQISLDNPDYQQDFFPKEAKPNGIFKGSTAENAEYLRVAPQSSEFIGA

With `COc1ccc(Nc2nc(N)nc3ccc(NCc4ccccc4)cc23)cc1` [10h, N^6-benzyl-N^4-(4-methoxyphenyl) quinazoline-2,4,6-triamine], the concentration for half-maximal inhibition (IC50) (in the data set on HT-29 colon cancer cells; in data set [1]; with A-549 lung cancer cells) was ≥ 100 µM throughout. For the same compound, in data set [2], the IC50 at 48 h is ≥ 100 µM.
Consider `Cc1ccc(C(=O)Nc2ccc3nc(N)nc(Nc4ccccc4)c3c2)cc1` [10n, N-(2-amino-4-(phenylamino)quinazolin-6-yl)-4-methylbenzamide], for which the 50% inhibitory concentration (IC50) (with HT-29 colon cancer cells; in data set [1]; in the data set on A-549 lung cancer cells) was ≥ 100 µM in each case. In addition, the 50% inhibitory concentration (IC50) at 48 h in data set [2] was ≥ 100 µM.
Turning to `Nc1nc(Nc2ccc(F)cc2)c2cc(NCc3ccccc3)ccc2n1` [10l, N^6-benzyl-N^4-(4-fluorophenyl) quinazoline-2,4,6-triamine], the half-maximal inhibitory concentration (IC50) (with HT-29 colon cancer cells; in data set [1]; with A-549 lung cancer cells) was ≥ 100 µM throughout. The IC50 at 48 h in data set [2] was ≥ 100 µM.
As for `COc1cccc2c1C(=O)c1c(O)c3c(c(O)c1C2=O)C[C@@](O)(C(=O)CO)C[C@@H]3O[C@H]1C[C@H](N)[C@H](O)[C@H](C)O1` [Doxorubicin, reference compound], the IC50 in the data set with HT-29 colon cancer cells turned out to be 56.3 ± 0.9 µM; in data set [1], 4.07 ± 0.38 µM; in the data set with A-549 lung cancer cells it was 4.3 ± 0.3 µM. The 50% inhibitory concentration (IC50) at 48 h in data set [2] is ≥ 100 µM.
Take `Cc1ccc(CNc2ccc3nc(N)nc(Nc4ccccc4)c3c2)cc1` [10d, N^6-(4-methylbenzyl)-N^4-phenylquinazoline-2,4,6-triamine]: the IC50 is ≥ 100 µM with HT-29 colon cancer cells, ≥ 100 µM in data set [1], 0.126 ± 0.019 µM in the data set on A-549 lung cancer cells and 45.5 µM at EGFR tyrosine kinase. Also, the IC50 at 48 h in data set [2] was ≥ 100 µM.
In the case of `Nc1nc(Nc2ccccc2)c2cc(NCc3ccccc3)ccc2n1` [10a, N^6-benzyl-N^4-phenylquinazoline-2,4,6-triamine], the IC50 (with HT-29 colon cancer cells; in data set [1]; with A-549 lung cancer cells) was ≥ 100 µM in each case. For the same compound, the IC50 at 48 h in data set [2] is ≥ 100 µM.
As for `Nc1nc(Nc2ccccc2)c2cc(NC(=O)c3ccc(F)cc3)ccc2n1` [10p, N-(2-amino-4-(phenylamino)quinazolin-6-yl)-4-fluorobenzamide], the IC50 (in the data set on HT-29 colon cancer cells; in data set [1]; in the data set on A-549 lung cancer cells) was ≥ 100 µM in each case. The half-inhibitory concentration (IC50) at 48 h in data set [2] is ≥ 100 µM.
Turning to `COc1ccc(CNc2ccc3nc(N)nc(Nc4ccccc4)c3c2)cc1` [10e, N^6-(4-methoxybenzyl)-N^4-phenylquinazoline-2,4,6-triamine], the IC50 is 13.5 ± 1.89 µM in the data set with HT-29 colon cancer cells, 63.5 ± 1.39 µM in data set [1], 15 ± 0.9 µM in the data set with A-549 lung cancer cells and 3.53 µM on EGFR tyrosine kinase. Besides, the concentration for half-maximal inhibition (IC50) at 48 h in data set [2] is ≥ 100 µM.
For the compound `Cc1ccc(Nc2nc(N)nc3ccc(NCc4ccccc4)cc23)cc1` [10g, N^6-benzyl-N^4-p-methylphenyl quinazoline-2,4,6-triamine], the IC50 (with HT-29 colon cancer cells; in data set [1]; in the data set with A-549 lung cancer cells) was ≥ 100 µM in each case. Further, in data set [2], the IC50 at 48 h is ≥ 100 µM.
As for `C#Cc1cccc(Nc2ncnc3cc(OCCOC)c(OCCOC)cc23)c1` [Erlotinib, reference compound], the IC50 is 28.1 ± 0.69 µM in the data set on HT-29 colon cancer cells, 18.2 ± 2.6 µM in data set [1] and 73.3 ± 1.5 µM in the data set with A-549 lung cancer cells. Further, the half-maximal inhibitory concentration (IC50) at 48 h in data set [2] is ≥ 100 µM.
